Laboratory results: patent US8367692B2, “Spiro (piperidine-4,2′-pyrrolidine)-1-(3,5-trifluoromethyl phenyl) methylcarboxamides as NK1 tachikynin receptor antagonists” (Glaxo Wellcome Manufacturing Pte Ltd, priority 2008, dated 2013)

How the values were obtained:
human NK1 receptor = target: T1, human NK1 receptor (Homo sapiens, UniProt P25103); experiment: NK1 functional assay (B), FLIPR inhibition of intracellular calcium release induced by Substance P; type: cell-based; conditions: U2OS cells transduced with BacMam virus expressing human NK1; ligand Substance P; read-out: binding potency pKi in the NK1 functional assay (B) (converted)
T1 construct: expressed in transfected cells; host or cells: human U2OS cells transiently transduced with recombinant BacMam virus
T1 sequence (P25103 whole entry): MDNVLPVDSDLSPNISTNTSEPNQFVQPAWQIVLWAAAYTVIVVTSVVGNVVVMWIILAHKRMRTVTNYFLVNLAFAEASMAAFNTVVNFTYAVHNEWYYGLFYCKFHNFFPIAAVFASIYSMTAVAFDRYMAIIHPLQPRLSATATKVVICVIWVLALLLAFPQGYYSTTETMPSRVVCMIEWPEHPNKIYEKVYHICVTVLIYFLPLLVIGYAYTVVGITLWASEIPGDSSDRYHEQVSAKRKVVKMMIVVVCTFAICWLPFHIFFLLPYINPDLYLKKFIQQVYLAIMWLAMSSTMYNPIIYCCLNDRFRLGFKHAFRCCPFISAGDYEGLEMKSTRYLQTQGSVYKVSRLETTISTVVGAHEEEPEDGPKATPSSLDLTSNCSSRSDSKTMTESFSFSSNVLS
Source text: B) Measurement of NK Functional Potency:
Compounds of the invention were further characterised in a functional assay using FLIPR technology for the determination of their effect to inhibit the intracellular calcium release induced by interaction of NK receptors with its perspective ligands. Human U2OS cells transiently transduced with recombinant BacMam virus expressing human NK1, NK2 and NK3 receptors were used in the studies (see J. P. Condreay et al, Proc. Natl. Acad. Sci. USA 1999, 96(1): 127-132). Briefly, U20S cells were harvested from tissue culture flasks, re-suspended to a cell density of 200-300K/ml and mixed with recombinant BacMam virus carrying NKR gene in a virus/cell ratio of 1% (v/v). 10K-15K cells/well were then seeded in 384-well Greiner bio-one plate in culture medium (DMEM with 10% FBS), incubated overnight in 5% CO2 at 37° C. […] Finally, 10 uL/well of NKR ligands in assay buffer containing 0.1% BSA was added to the cells and fluorescence signal read on a FLIPR system. […] IC50 values of each compound were determined by an 11-point 3×-dilution inhibition curve. The potency each antagonist (fpKi) was calculated from plC50 by the Cheng-Prusoff equation using EC50 of ligand determined in a separate experiment.

NK1 receptor = target: T2, NK1 receptor (Meriones unguiculatus, UniProt Q5DUB1); experiment: Gerbil foot tapping model (GR73632-induced, icv); type: in vivo
T2 construct: from tissue; host or cells: living gerbil, central nervous system (icv agonist challenge)
T2 sequence (Q5DUB1 whole entry): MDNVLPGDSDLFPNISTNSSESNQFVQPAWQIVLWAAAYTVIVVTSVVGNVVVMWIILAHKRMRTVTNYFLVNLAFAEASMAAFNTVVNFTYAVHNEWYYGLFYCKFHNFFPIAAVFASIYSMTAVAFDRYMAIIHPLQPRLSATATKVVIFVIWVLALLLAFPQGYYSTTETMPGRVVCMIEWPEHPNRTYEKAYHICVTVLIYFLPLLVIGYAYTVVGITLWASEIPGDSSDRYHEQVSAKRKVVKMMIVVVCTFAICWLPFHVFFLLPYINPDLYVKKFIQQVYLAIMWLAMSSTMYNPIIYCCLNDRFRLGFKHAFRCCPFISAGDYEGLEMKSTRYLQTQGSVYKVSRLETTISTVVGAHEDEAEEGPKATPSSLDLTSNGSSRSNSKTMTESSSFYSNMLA
Source text: The ability of the compounds of the invention to penetrate the central nervous system and to bind at the NK1 receptor may be determined using the gerbil foot tapping model as described by Rupniak & Williams, Eur. Jour. of Pharmacol., 1994.
Intracerebroventricular (icv) administration of the NK1 receptor agonist GR73632 (R. M. Hagan et al., Neuropeptides 1991, 19 (2), 127-135) a characteristic hind leg foot tapping (GFT) response in gerbils which can be inhibited by potent NK1 receptor antagonists. The gerbil foot tapping paradigm was carried out as follows; gerbils were dosed with compound of the invention, and following an appropriate pre-treatment time were anaesthetised using isofluorane/oxygen mixture. The skull was then exposed and 5 ul of GR73632 (3 pmol conc.) was injected by insertion of a cuffed 25G needle to a depth of 4 mm below bregma, directly into the lateral ventricle (intracerebroventricular dosing). Immediately following the injection, gerbils were placed individually into a clear observation box to recover.
Upon the gerbil regaining its righting reflex, the duration of repetitive hind foot tapping was recorded over a 5 minute period. The dose of the test compound required to inhibit by 50% the tapping induced by the NK1 agonist expressed as mg/kg is referred to as the ID50 values.

SMILES | Ki (human NK1 receptor) [nM] | GR73632-induced Foot Tapping behaviour (NK1 receptor; dose range of 0.1 to 10 mg/kg p.o.) | ED50 (NK1 receptor; po, read-out: ID50, dose required to inhibit by 50% the tapping induced by the NK1 agonist) [mg/kg]
Cc1cc(F)ccc1[C@H]1C[C@@]2(CCC(C(N)=O)N2)CCN1C(=O)N(C)[C@H](C)c1cc(C(F)(F)F)cc(C(F)(F)F)c1 (single isomer, unassigned; diastereoisomer 1) [Example 1] | < 1 | – | –
Cc1cc(F)ccc1[C@H]1C[C@]2(CC[C@H](C(N)=O)N2)CCN1C(=O)N(C)[C@H](C)c1cc(C(F)(F)F)cc(C(F)(F)F)c1.Cl [Example 4, (2R,5S,7R)—N^8-{(1R)-1-[3,5-bis(trifluoromethyl)phenyl]ethyl}-7-(4-fluoro-2-methylphenyl)-N^8-methyl-1,8-diazaspiro[4.5]decane-2,8-dicarboxamide hydrochloride] | – | significantly attenuated | ~0.67
